From US20070218462A1, “Method of Predicting a Benefit of Antioxidant Therapy for Prevention of Cardiovascular Disease in Hiperglycemic Patients” (priority 2003, published 2007)
“Also recorded” adds a separate entry of the source.

Tests used:
[1] = test system: patients at high risk of cardiovascular events; experiment: HOPE study: relative risk of primary CV outcomes with vitamin E or ramipril, by haptoglobin phenotype; assay type: in vivo, human
Source text: HOPE study and patient characteristics: The Heart Outcomes Prevention Evaluation (HOPE) study was designed to test the hypotheses that two preventive intervention strategies, namely angiotensin-converting enzyme (ACE) inhibition or vitamin E, would improve morbidity and mortality in patients at high risk of cardiovascular events compared with placebo. Patients were included in the study who were considered to be at high risk of future fatal or non-fatal cardiovascular events, by virtue of their age (>55 years), existing or previous cardiovascular disease, or diabetes. Diabetics had at least one other risk factor, either known vascular disease or other factors such as cigarette smoking, high cholesterol or hypertension. Ramipril or placebo was added to concomitant medication, which included, in a substantial proportion of patients, antihypertensive drugs (excluding ACE-I), lipid-lowering agents or aspirin. The HOPE study design and protocols have been previously described in detail (see, for example, The Heart Outcomes Prevention Evaluation Study Investigators NE J Med, 2000; 342:154-60 and […] Angioten Aldost Sys 2000;1:18-20). Briefly, the study population consisted over 9,451 patients at high risk of CVD (3,654 DM). […] Patients were followed for a mean of 4.5 years. The primary study outcome was the composite of non-fatal MI, stroke or cardiovascular death. For samples from the HOPE Study, haptoglobin phenotyping was performed from 10 ul of plasma by polyacrylamide gel electrophoresis according to established methods (Hochberg I et al Atherosclerosis 2002;161:441-446). A signature banding pattern is obtained from individuals who are homozygous for the 1 allele (Hp 1-1), homozygous for the 2 allele (Hp 2-2) or who are heterozygous at the haptoglobin locus (Hp 2-1). We have established 100% concordance between the haptoglobin phenotype as determined from plasma and the haptoglobin genotype as determined from genomic DNA by the polymerase chain reaction (Koch W, et al Clin Chem 2002; 277:13635-40). An unambiguous haptoglobin phenotype was obtained on greater than 99.6% of all samples assayed. Haptoglobin phenotyping was performed with no knowledge of the patients clinical or treatment status. All analyses of the HOPE Study data were carried out using SAS 6.02. Baseline characteristics of patients according to haptoglobin were compared by t tests or χ^2 tests as appropriate. […] Patient characteristics of HOPE samples undergoing haptoglobin phenotyping: Haptoglobin phenotype was obtained on 3176 patients (1078 diabetics) from the origianl HOPE cohort for whom plasma was originally archived. These patients represented a randomly selected consecutive series of cohort according to CVD risk factors and treatment regimen is shown in Table 4 below.

[2] = test system: unselected samples or Diabetic patients; experiment: CVD outcomes and Vitamin C supplementation (data not shown); assay type: in vivo, human
[3] = test system: patients at high risk of cardiovascular events; details: daily administration of 400 IU for 4.5 years; original HOPE study report; cited from earlier work
[4] = All patients, Hp 1-1, with ramipril vs without ramipril
[5] = All patients, Hp 2-1, with ramipril vs without ramipril
[6] = All patients, Hp 2-2, with ramipril vs without ramipril
[7] = DM Patients only, Hp 1-1, with ramipril vs without ramipril
[8] = DM Patients only, Hp 2-1, with ramipril vs without ramipril
[9] = DM Patients only, Hp 2-2, with ramipril vs without ramipril
[10] = entire sample, regardless of haptoglobin type
[11] = All patients, Hp 1-1, with vitamin E vs without vitamin E
[12] = All patients, Hp 2-1, with vitamin E vs without vitamin E
[13] = All patients, Hp 2-2, with vitamin E vs without vitamin E
[14] = DM Patients only, Hp 1-1, with vitamin E vs without vitamin E
[15] = DM Patients only, Hp 2-1, with vitamin E vs without vitamin E
[16] = DM Patients only, Hp 2-2, with vitamin E vs without vitamin E

CCOC(=O)[C@H](CCc1ccccc1)N[C@@H](C)C(=O)N1[C@H](C(=O)O)C[C@@H]2CCC[C@@H]21 [Ramipril, ramipril]
Relative Risk Ratio, CV death (95% CI) [1, 4]: 0.58 (0.29-1.18)
Relative Risk Ratio, MI (95% CI) [1, 4]: 0.61 (0.35-1.06)
Relative Risk Ratio, Primary (95% CI) [1, 4]: 0.74 (0.47-1.17)
Relative Risk Ratio, Stroke (95% CI) [1, 4]: 0.91 (0.33-2.51)
Relative Risk Ratio, CV death (95% CI) [1, 5]: 1.02 (0.66-1.58)
Relative Risk Ratio, MI (95% CI) [1, 5]: 0.88 (0.64-1.20)
Relative Risk Ratio, Primary (95% CI) [1, 5]: 0.81 (0.62-1.07)
Relative Risk Ratio, Stroke (95% CI) [1, 5]: 0.68 (0.38-1.21)
Relative Risk Ratio, CV death (95% CI) [1, 6]: 0.87 (0.55-1.37)
Relative Risk Ratio, MI (95% CI) [1, 6]: 0.83 (0.59-1.17)
Relative Risk Ratio, Primary (95% CI) [1, 6]: 0.76 (0.57-1.02)
Relative Risk Ratio, Stroke (95% CI) [1, 6]: 0.53 (0.27-1.04)
Relative Risk Ratio, CV death (95% CI) [1, 7]: 0.42 (0.13-1.36)
Relative Risk Ratio, MI (95% CI) [1, 7]: 0.53 (0.19-1.46)
Relative Risk Ratio, Primary (95% CI) [1, 7]: 0.78 (0.35-1.75)
Relative Risk Ratio, Stroke (95% CI) [1, 7]: 1.29 (0.21-7.82)
Relative Risk Ratio, CV death (95% CI) [1, 8]: 0.97 (0.50-1.88)
Relative Risk Ratio, MI (95% CI) [1, 8]: 0.99 (0.81-2.13)
Relative Risk Ratio, Primary (95% CI) [1, 8]: 0.97 (0.72-1.61)
Relative Risk Ratio, Stroke (95% CI) [1, 8]: 0.58 (0.25-1.34)
Relative Risk Ratio, CV death (95% CI) [1, 9]: 0.56 (0.28-1.12)
Relative Risk Ratio, MI (95% CI) [1, 9]: 0.57 (0.38-1.12)
Relative Risk Ratio, Primary (95% CI) [1, 9]: 0.57 (0.36-0.90)
Relative Risk Ratio, Stroke (95% CI) [1, 9]: 0.42 (0.16-1.09)
benefit of ramipril supplementation for any of the primary CV outcomes [1, 10]: no significant benefit
benefit to ramipril for any of the primary CV outcomes ([1]; other haptoglobin phenotypes (Hp 1-1, Hp 1-2)): no benefit
benefit of ramipril supplementation ([1]; unselected DM group): no significant benefit

O=C1O[C@H]([C@@H](O)CO)C(O)=C1O [Vitamin C]
correlation between CVD outcomes and Vitamin C supplementation [2]: no correlation could be found

CC(=O)Oc1c(C)c(C)c2c(c1C)CC[C@@](C)(CCC[C@H](C)CCC[C@H](C)CCCC(C)C)O2 [Vitamin E, RRR-a-tocophorol acetate]
Relative Risk Ratio, CV death (95% CI) [1, 11]: 1.10 (0.56-2.12)
Relative Risk Ratio, MI (95% CI) [1, 11]: 0.79 (0.47-1.33)
Relative Risk Ratio, Primary (95% CI) [1, 11]: 0.97 (0.63-1.50)
Relative Risk Ratio, Stroke (95% CI) [1, 11]: 1.50 (0.56-4.04)
Relative Risk Ratio, CV death (95% CI) [1, 12]: 1.07 (0.69-1.64)
Relative Risk Ratio, MI (95% CI) [1, 12]: 1.02 (0.75-1.38)
Relative Risk Ratio, Primary (95% CI) [1, 12]: 0.96 (0.74-1.25)
Relative Risk Ratio, Stroke (95% CI) [1, 12]: 0.92 (0.53-1.60)
Relative Risk Ratio, CV death (95% CI) [1, 13]: 0.75 (0.48-1.16)
Relative Risk Ratio, MI (95% CI) [1, 13]: 0.94 (0.68-1.30)
Relative Risk Ratio, Primary (95% CI) [1, 13]: 0.92 (0.69-1.22)
Relative Risk Ratio, Stroke (95% CI) [1, 13]: 0.85 (0.46-1.57)
Relative Risk Ratio, CV death (95% CI) [1, 14]: 0.64 (0.21-1.92)
Relative Risk Ratio, MI (95% CI) [1, 14]: 0.83 (0.33-2.06)
Relative Risk Ratio, Primary (95% CI) [1, 14]: 0.84 (0.40-1.79)
Relative Risk Ratio, Stroke (95% CI) [1, 14]: 2.24 (0.41-12.4)
Relative Risk Ratio, CV death (95% CI) [1, 15]: 1.0 (0.53-1.93)
Relative Risk Ratio, MI (95% CI) [1, 15]: 0.99 (0.45-2.18)
Relative Risk Ratio, Primary (95% CI) [1, 15]: 1.08 (0.72-1.61)
Relative Risk Ratio, Stroke (95% CI) [1, 15]: 0.99 (0.45-2.18)
Relative Risk Ratio, CV death (95% CI) [1, 16]: 0.45 (0.23-0.90)
Relative Risk Ratio, MI (95% CI) [1, 16]: 0.57 (0.33-0.97)
Relative Risk Ratio, Primary (95% CI) [1, 16]: 0.70 (0.45-1.10)
Relative Risk Ratio, Stroke (95% CI) [1, 16]: 1.15 (0.47-2.82)
benefit of vitamin E therapy for any of the primary CV outcomes ([1]; DM patients, other haptoglobin phenotypes (Hp 1-1 and Hp 2-1)): no significant benefit
benefit of vitamin E supplementation for any of the primary CV outcomes [1, 10]: no significant benefit
benefit of vitamin E supplementation ([1]; unselected DM group): no significant benefit; also recorded: no apparent benefit
clinical benefit on cardiovascular (CV) outcomes [3]: failed to demonstrate any clinical benefit
